In data set [1] the test system is influenza A virus A/PR/8/34 (H1N1). The data set is classed as in vivo, BALB/c mice. Particulars: for Survival rate (percentage): end of the experiment (day 14); for Maximum rate of weight loss / day N of maximum rate of weight loss: mouse, in vivo.
Data set [2] deals with influenza virus A/PR/8/34 (H1N1). The experiment in a line: Influenza virus cytopathic effect (CPE) assay in MDCK cells. The data set is classed as cell-based. The following applies: 120 h, 5 days, CCK8. Background: Cytopathic effects are the visible damage that an infection or toxin causes in cultured cells.
The nature of data set [3]: in vitro. Format: in vitro ADME. Particulars: 2 μM, 37° C., 4 hours, read-out: Plasma protein binding (PPB) unbound (%). As for the experimental part:
(§1) Experimental purpose: To evaluate the protein binding rate of the compounds of the present disclosure in the plasma of CD-1 mouse, SD rat, and human using equilibrium dialysis.
(§2) Experimental protocol: The test compounds were diluted with dialysis buffer into the plasma of the above […] to prepare samples with a final concentration of 2 μM. The samples were then added to a 96-well equilibrium dialysis device and dialyzed using phosphate buffer solution at 37° C. for 4 hours. Warfarin was used as a control compound in the experiment. The concentration of the test compounds and warfarin in the plasma and buffer was determined using LC-MS/MS.

Data set [4] can be described thus: in vitro. The data set is classed as in vitro ADME, CD-1 mouse. The following applies: CD-1; mouse (M) plasma, 2 μM, 37° C., 4 hours; read-out: Plasma protein binding (PPB) unbound (%). Here is the method:
as §1, §2

The nature of data set [5]: in vivo. The arrangement: species or system male SD rats. The following applies: male, SD, iv, 1 mg/kg, rat, 1 mpk. Here is the method:
Experimental purpose: To investigate the plasma pharmacokinetics of the compounds of the present disclosure in male SD rats after a single intravenous injection or an oral administration.
Experimental animals: male SD rats, 6 to 8 weeks old, weighing between 200 to 300 g;
Experimental procedure: Injection administration (i.v.) was carried out with a dose of 1 mpk, at a concentration of 0.50 mg/mL, with a vehicle of 40% DMAC+40% PG+20% (20% HP-β-CD+water). Oral administration (po) was carried out with a dose of 10 mpk, at a concentration of 1 mg/mL, with a vehicle of 3% DMSO+10% solutol HS+87% water.
(§3) Sample collection: At each time point, 0.03 mL of blood samples were collected from the experimental animals through a puncture of the saphenous vein. The actual blood collection time was recorded. All blood samples were kept in commercially available 1.5 mL EDTA-K2 anticoagulant tubes. After blood sample collection, DDV was added into the plasma matrix as a stabilizer, wherein the ratio of plasma to Dichlorvos (DDV) solution was 40:1. The DDV solution was a 40 mM DDV solution in acetonitrile/water (1:1). Within half an hour, the mixture was centrifuged at 4° C. and 3000 g for 10 minutes. The supernatant plasma was aspirated, quickly placed in dry ice, and stored in a −80° C. refrigerator for LC-MS/MS analysis.
Data analysis: A non-compartmental model in Phoenix WinNonlin 6.3 pharmacokinetic software was used to process the plasma concentration data. The pharmacokinetic parameters were calculated using the linear-log trapezoidal method: Cl (apparent clearance rate), T1/2 (the time required to clear half of the compound), Cmax (peak concentration), and AUC0-last (integral area under the concentration-time curve from 0 to the last sampling time).

Data set [6] is described as follows: in vivo. On the set-up: species or system male beagle dogs. The following applies: male, iv, 1 mg/kg, beagle dog, 1 mpk. Here is the method:
Experimental purpose: To investigate the plasma pharmacokinetics of the compounds of the present disclosure in male beagle dogs after a single intravenous injection or an oral administration.
Experimental animals: male beagle dogs, >6 months old, weighing between 6 to 12 kg.
Experimental procedure: Injection administration (i.v.) was carried out with a dose of 1 mpk, at a concentration of 1 mg/mL, with a vehicle of 10% DMAC+90% (20% HP-β-CD+water). Oral administration (po) was carried out with a dose of 10 mpk, at a concentration of 2 mg/mL, with a vehicle of 3% DMSO+10% solutol HS+87% water.
as §3, with “0.8” for “0.03”
Data analysis: A non-compartmental model in Phoenix WinNonlin 6.3 pharmacokinetic software was used to process the plasma concentration data. The pharmacokinetic parameters were calculated using the linear-log trapezoidal method: Cl, T1/2, Cmax, and AUC0-last.

Where two headings read alike, the source gives them in different places.

For the compound `COC(=O)OCOc1c2n(ccc1=O)N([C@@H]1c3ccccc3[Se]Cc3c1ccc(F)c3F)[C@@H]1COCCN1C2=O` [Compound 5], in data set [1], the “Survival rate (percentage)” value came out at 100%, the “Maximum rate of weight loss” value is reported as 13.77% and the “day N of maximum rate of weight loss” value worked out at 7 days.

Turning to `COC(=O)OCOc1c2n(ccc1=O)N([C@H]1c3ccc(F)c(F)c3C[Se]c3cccnc31)[C@@H]1COCCN1C2=O` [Compound 4], in data set [1], the “Survival rate (percentage)” value is 100%, the “Maximum rate of weight loss” value is on record as 7.03% and the “day N of maximum rate of weight loss” value stood at 3 days.

In general, EC50 refers to the midpoint of the concentration-response curve. For the compound `O=C1c2c(O)c(=O)ccn2N([C@@H]2c3ccc(F)c(F)c3C[Se]c3cccnc32)[C@@H]2COCCN12` [Compound 3′], the EC50 in data set [2] is 157 nM.

Usually AUC(0-t) stands for the area under the concentration-time curve up to a stated or last time point. Low values mean less exposure, high ones more exposure. As usually defined, the clearance is a measure of how efficiently the substance is removed, as volume per time. A lower clearance goes with inefficient removal. What is called half-life is the time in which the quantity being followed falls by half. For the compound `O=C1c2c(O)c(=O)ccn2N([C@H]2c3ccc(F)c(F)c3C[Se]c3cccnc32)[C@@H]2COCCN12` [Compound 3], in data set [2], the midpoint of the response, the EC50, lay at 2.8 nM. The fraction unbound in the data set “in vitro [3]” (SD, rat (R) plasma) is 0.313; in “in vitro [3]” (crab-eating macaque (C) plasma) it was 0.316; in the data set “in vitro [3]” (dog (D) plasma) it was 0.246; in the data set “in vitro [3]” (human (H) plasma), 0.259; in the data set “in vitro [4]”, 0.137. The AUC(0-t) in “in vivo [5]” turned out to be 0.171 µM·h; in “in vivo [6]”, 0.83 µM·h. Moreover, the clearance in “in vivo [5]” amounted to 178 mL/min/kg; in the data set “in vivo [6]”, 36.8 mL/min/kg. Further, the half-life was 102 min in “in vivo [5]” and 222 min in the data set “in vivo [6]”.

The record behind these values is US12552812B2, “Pyridone multiple-membered ring derivatives and use thereof” (priority 2021, dated 2026).
